In this assay the test system is male broiler chickens (Cobb 500). The assay can be described thus: Experiment in vivo 1: apparent ileal digestibility of crude protein, fat and energy. The following applies: supplemented feed: B Zn-Bacitracin 50 mg/kg; C Muramidase 40 000 U/g; Cobb 500 broilers. An excerpt:
Day-old male broiler chickens (Cobb 500) were supplied by a commercial hatchery (Joseph Grelier S. A., Elevage avicole de la Bohadière, F-49290 Saint-Laurent de la Plaine, France).
On the day of arrival (day 1), the chickens were divided by weight into groups of 18 birds. Each group was placed in one floor-pen littered with wood shavings and allocated to one of the different treatments.
Each treatment was replicated with 12 groups. The chickens were housed in an environmentally controlled room. The room temperature was adapted to the age of the birds. In the first few days an additional infra-red electric heating lamp was placed in each pen. Moreover, in the first week feed was offered to the birds as crumbled pellets, afterwards as pelleted feed. The birds had free access to feed and water.
The experimental diets (Starter and Grower) were based on soybean meal, wheat and rye (12%) as main ingredients (Table 2). The diets were formulated to contain 210 g crude protein and 12.5 MJ/kg MEN for the starter period and 190 g crude protein and 12.9 MJ/kg MEN for the grower period.
The diets were fed either unsupplemented (negative control) or supplemented with Muramidase and Zn-Bacitracin as follows:
Appropriate amount of the solid product (Zn-Bacitracin) was mixed with a small quantity of the basal feed as a premix which was then added to the feed to get the final concentration, according to the treatments. After mixing the feed was pelleted (3×25 mm) at about 70° C.
Appropriate amount of the liquid preparations of Muramidase was diluted in water and sprayed onto the respective pelleted feed to get the final concentrations in the feed corresponding to the different treatments. For procedural balance of all treatments the same volume of water were also sprayed onto the pellets of the control diets. […]
Energy determinations were performed using an IKA®-Werke calorimeter (C 2000 basic). TiO2 concentration in feed and digesta were determined by Induction Coupled Plasma (ICP) according to DIN EN ISO 11885:1997 (DIN EN ISO 1998) after H2SO4/Na2SO4 mineralization. […]

Marks after values point to notes of the source that are not given here.

Consider Zn-Bacitracin, for which the “Apparent ileal digestibility Energy (%)” value was 90.1^a %, the “Apparent ileal digestibility Fat (%)” value is given as 82.2^a % and the “Apparent ileal digestibility Protein (%)” value is 76.3^a %.

The values above are taken from US20200337337A1, “ANIMAL FEED COMPOSITIONS COMPRISING MURAMIDASE AND USES THEREOF” (DSM IP ASSETS B.V., priority 2017, published 2020).
